Laboratory results: the supplement of paper PMC13207355
Structures can show the parent of a compound that is named as a salt.

Columns and labels:
Conditions in all cases: exposure time: 72 h
[1] = test system: E13 (patient-derived glioblastoma stem cells of classical subtype); assay: surviving fraction (nuclei count normalised to DMSO); higher = more cells surviving (less toxic)
[2] = test system: E21 (patient-derived glioblastoma stem cells of mesenchymal subtype); assay: as above
[3] = test system: E28 (patient-derived glioblastoma stem cells of classical subtype); assay: as above
[4] = test system: E31 (patient-derived glioblastoma stem cells of proneural subtype); assay: as above
[5] = test system: E34 (patient-derived glioblastoma stem cells of proneural subtype); assay: as above
[6] = test system: E57 (patient-derived glioblastoma stem cells of mesenchymal subtype); assay: as above
[7] = test system: FT3469 (normal neural stem cell line); assay: as above
[8] = test system: E13; assay: phenotypic distance (Euclidean, principal components) from DMSO controls (arbitrary units); higher = stronger morphological change
[9] = test system: E21; assay: as above
[10] = test system: E28; assay: as above
[11] = test system: E31; assay: as above
[12] = test system: E34; assay: as above
[13] = test system: E57; assay: as above
[14] = test system: FT3469; assay: as above
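Wherever phenotypic distance (Euclidean, principal components) from DMSO controls is given: cell Painting imaging in 384-well plates, CellProfiler features reduced to at least 20 principal components, Euclidean distance versus same-plate DMSO vehicle wells (0.1% v/v), median over six images per well.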
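Wherever surviving fraction (nuclei count normalised to DMSO) is given: nuclei counted by high-content imaging of Hoechst-stained cells in laminin-coated 384-well plates, relative to 0.1% DMSO vehicle wells, with staurosporine as cell-death control.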

CCC1=C[C@@H]2CN(C1)Cc1c([nH]c3ccccc13)[C@@](C(=O)OC)(c1cc3c(cc1OC)N(C)[C@H]1[C@@](O)(C(=O)OC)[C@H](OC(C)=O)[C@]4(CC)C=CCN5CC[C@]31[C@@H]54)C2 [Vinorelbine Tartrate]
Conditions	phenotypic distance	surviving fraction
[1], 4.1 nM	–	0.863
[1], 12.3 nM	–	0.903
[1], 37 nM	–	0.916
[1], 111.1 nM	–	0.907
[1], 333.3 nM	–	0.82
[1], 1000 nM	–	0.371
[1], 3000 nM	–	0.246
[2], 4.1 nM	–	0.868
[2], 12.3 nM	–	0.894
[2], 37 nM	–	0.926
[2], 111.1 nM	–	0.761
[2], 333.3 nM	–	0.586
[2], 1000 nM	–	0.169
[2], 3000 nM	–	0.1
[3], 4.1 nM	–	0.904
[3], 12.3 nM	–	0.815
[3], 37 nM	–	0.801
[3], 111.1 nM	–	0.749
[3], 333.3 nM	–	0.609
[3], 1000 nM	–	0.375
[3], 3000 nM	–	0.353
[4], 4.1 nM	–	0.794
[4], 12.3 nM	–	0.911
[4], 37 nM	–	0.749
[4], 111.1 nM	–	0.649
[4], 333.3 nM	–	0.37
[4], 1000 nM	–	0.126
[4], 3000 nM	–	0.0917
[5], 4.1 nM	–	1.05
[5], 12.3 nM	–	0.954
[5], 37 nM	–	0.856
[5], 111.1 nM	–	0.97
[5], 333.3 nM	–	0.822
[5], 1000 nM	–	0.57
[5], 3000 nM	–	0.402
[6], 4.1 nM	–	0.969
[6], 12.3 nM	–	1.04
[6], 37 nM	–	1.04
[6], 111.1 nM	–	1.02
[6], 333.3 nM	–	0.899
[6], 1000 nM	–	0.447
[6], 3000 nM	–	0.102
[7], 4.1 nM	–	0.953
[7], 12.3 nM	–	0.829
[7], 37 nM	–	0.834
[7], 111.1 nM	–	0.827
[7], 333.3 nM	–	0.569
[7], 1000 nM	–	0.553
[7], 3000 nM	–	0.56
[8], 4.1 nM	1.1	–
[8], 12.3 nM	1.18	–
[8], 37 nM	1.26	–
[8], 111.1 nM	1.7	–
[8], 333.3 nM	2.71	–
[8], 1000 nM	4.6	–
[8], 3000 nM	6.33	–
[9], 4.1 nM	1.06	–
[9], 12.3 nM	1.08	–
[9], 37 nM	1.45	–
[9], 111.1 nM	2.33	–
[9], 333.3 nM	4.36	–
[9], 1000 nM	7	–
[9], 3000 nM	8.49	–
[10], 4.1 nM	0.584	–
[10], 12.3 nM	0.83	–
[10], 37 nM	0.727	–
[10], 111.1 nM	1.31	–
[10], 333.3 nM	2.18	–
[10], 1000 nM	2.7	–
[10], 3000 nM	3.22	–
[11], 4.1 nM	0.666	–
[11], 12.3 nM	0.627	–
[11], 37 nM	0.856	–
[11], 111.1 nM	1.44	–
[11], 333.3 nM	3.01	–
[11], 1000 nM	4.58	–
[11], 3000 nM	5.73	–
[12], 4.1 nM	0.476	–
[12], 12.3 nM	0.944	–
[12], 37 nM	0.78	–
[12], 111.1 nM	1.01	–
[12], 333.3 nM	1.48	–
[12], 1000 nM	2.84	–
[12], 3000 nM	4.02	–
[13], 4.1 nM	0.512	–
[13], 12.3 nM	0.688	–
[13], 37 nM	0.822	–
[13], 111.1 nM	0.746	–
[13], 333.3 nM	3.9	–
[13], 1000 nM	4.81	–
[13], 3000 nM	6.16	–
[14], 4.1 nM	0.854	–
[14], 12.3 nM	1.01	–
[14], 37 nM	1.01	–
[14], 111.1 nM	1.12	–
[14], 333.3 nM	2.43	–
[14], 1000 nM	4.88	–
[14], 3000 nM	3.13	–
